# Data published in patent publication US8962691B2, “Retinoid replacements and opsin agonists and methods for the use thereof” (University of Washington, priority 2003, dated 2015).
# What was measured:
# opsin = biological target: T1, opsin (Bos taurus, UniProt P02699); assay: Photoisomerization (bleaching) of 11-cis-7-ring-retinals in solution and bound to opsin
# T1 construct: Preparation of rod outer segment, opsin, rhodopsin regeneration with retinals; from tissue; host or cells: rod outer segments
# Description: Preparation of rod outer segment, opsin, rhodopsin regeneration with retinals, and purification of rhodopsin on a concanavalin A-Sepharose 4B column were conducted as described previously (Jang et al., J. Biol. Chem. 276:26148-53 (2001)).
# rhodopsin = biological target: T2, rhodopsin (Bos taurus, UniProt P02699); assay: FTIR spectroscopy of regenerated rhodopsin; type: biochemical; details: for FTIR difference spectra of regenerated rhodopsin upon photoactivation: 7-ring analogs
# T2 construct: Opsin membranes (24 μM) (Sachs et al., J. Biol. Chem. 275:6189-94 (2000)); from tissue; rod outer segment membranes by inference
# Description: Opsin membranes (24 μM) (Sachs et al., J. Biol. Chem. 275:6189-94 (2000)) were incubated overnight with 240 μM 11-cis-retinal or with the mixture of either 11-cis-6-ring- or 11-cis-7-ring-retinal isomers in the BTP buffer (20 mM BTP, pH 7.5, containing 1 mM MgCl2 and 130 mM NaCl). Suspensions of membranes were centrifuged for 25 minutes at 100,000×g and resuspended in the BTP buffer to yield 2.2 mM rhodopsin (from absorption at 500 nm). […] For H2O/D2O exchange, the pellet was resuspended three times in deuterated buffer. The buffer solution was removed, and the pellet transferred to a 30-mm-diameter temperature-controlled transmission cell with two BaF2 windows and a 3 μm polytetrafluoroethylen gasket. The spectra were recorded using a Bruker ifs 66-V spectrometer (Bard et al., FEBS Lett. 473:259-64 (2000)). For all samples, Meta II minus rhodopsin difference spectra were produced.
# Gt = assay: Kinetic light scattering (Gt activation); type: biochemical
# Description: Light-scattering changes were measured as previously described (Heck et al., Methods Enzymol. 315:32947 (2000)). Measurements were performed in 10-mm path cuvettes with 300-μl volumes in isotonic buffer (20 mM BTP, 130 mM NaCl, and 1 mM MgCl2, pH 6.4, as indicated in the legend to FIG. 6) at 22° C. with a 5-ms dwell time of the A/D converter (Nicolet 400, Madison, Wis.). Samples contained membrane suspension (3 μM rhodopsin) reconstituted with purified Gt (0.8 μM) and 1 mM GTP. Reactions were triggered by flash photolysis of rhodopsin with a green (500±20 nm) flash attenuated by appropriate neutral density filters. The flash intensity was quantified photometrically by the amount of rhodopsin bleached and expressed in terms of the mole fraction of photoexcited rhodopsin (Rh*/Rh).
# Rpe65−/− mice [1] = assay: In vivo regeneration of rhodopsin with 6- and 7-ring isomers; set-up: species or system mouse
# Text: All animal studies employed procedures approved by the University of Washington Animal Care Committee and conformed to recommendations of the American Veterinary Medical Association Panel on Euthanasia. All animals were maintained in complete darkness, and all manipulations were done under dim red light employing a Kodak No. 1 Safelight filter (transmittance >560 nm). Typically, 2-3-month-old mice were used in all studies. RPE65-deficient mice were obtained from M. Redmond (National Eye Institute, National Institutes of Health. Bethesda, Md.) and genotyped as described previously (Redmond et al., Nat. Genet. 20:344-51 (1998; Redmond et al. Methods Enzymol. 316:705-24 (2000)).
# All procedures were performed under dim red light as described previously (Van Hooser et al., Proc. Natl. Acad. Sci. USA 97:862328 (2000); Jang. et al., J. Biol. Chem. 276:3245665 (2001); Palczewski et al., Biochemistry 38:12012-19 (1999)).
# Rpe65−/− mice [2] = tested on: Rpe65−/− mice
# Description: Mice were anesthetized by intraperitoneal injection with 15 μl/g body weight of 6 mg/ml ketamine and 0.44 mg/ml xylazine diluted with 10 mM phosphate buffer, pH 7.2, containing 100 mM NaCl. The pupils were dilated with 1% tropicamide. A contact lens electrode was placed on the eye with a drop of methylcellulose, and a ground electrode (a reference electrode) was placed in the ear. ERGs were recorded with the universal testing and electrophysiologic system 3000 (UTAS E-3000) (LKC Technologies, Inc.). The mice were placed in a Ganzfield chamber, and responses to flash stimuli were obtained from both eyes simultaneously. […] Two to four recordings were made with >10-second intervals. Typically, 4-8 animals were used for recording of each point in all conditions. All ERG measurements were done within 10-40 minutes after anesthesia.
# rhodopsin kinase = assay: Phosphorylation of regenerated rhodopsin by rhodopsin kinase; type: biochemical; details: in vitro
# Description: Regenerated rhodopsin (2 mg/ml) was mixed in 100 μl of 100 mM sodium phosphate buffer, pH 7.2, containing 5 mM MgCl2, 0.5 mM [^32P]ATP (approximately 35,000 to approximately 50,000 cpm/nmol) and purified rhodopsin kinase (approximately 5 μg of protein), and the assay was carried out as described previously (Palczewski et al., J. Biol. Chem. 266:1294955 (1991)). Studies were performed in triplicate.
# T2 sequence (P02699 whole entry): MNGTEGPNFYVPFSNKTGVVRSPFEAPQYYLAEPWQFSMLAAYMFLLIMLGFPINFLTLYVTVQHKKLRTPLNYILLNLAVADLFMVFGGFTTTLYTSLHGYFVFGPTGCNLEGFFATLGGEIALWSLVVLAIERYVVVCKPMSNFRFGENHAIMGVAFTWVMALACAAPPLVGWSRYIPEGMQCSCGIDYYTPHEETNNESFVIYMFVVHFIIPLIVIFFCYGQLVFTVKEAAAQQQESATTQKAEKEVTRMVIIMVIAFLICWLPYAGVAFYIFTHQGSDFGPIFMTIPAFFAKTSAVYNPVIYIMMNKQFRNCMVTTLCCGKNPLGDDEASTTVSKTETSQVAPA
# T1 sequence (P02699 whole entry): as above
substance,measurement,setting,value
11-cis-7-ring retinal [isomer 3],isomerization when bound to opsin,opsin,most stable to isomerization
same,FTIR difference spectra of regenerated rhodopsin upon photoactivation,rhodopsin,inactive
same,activity relative to wild-type,Gt; regenerated rhodopsin,0.10%
same,regeneration of opsin in vivo,Rpe65−/− mice [1],readily and preferentially regenerated
11-cis-6-ring-rhodopsin: rhodopsin regenerated with 11-cis-6-ring-retinal (2-carbon bridge),pKa of the light-induced active species,rhodopsin,5.4
same,FTIR: photoproduct after bleaching,rhodopsin; pH 4.5,Meta II-like product that is able to bind Gt-(340-350) derived peptide
same,FTIR: activity after bleaching,rhodopsin; pH 7.5,only residual activity
same,activity relative to the 7-locked pigment,Gt,markedly higher
"9,11-di-cis-7-ring retinal [isomer 4]",FTIR difference spectra of regenerated rhodopsin upon photoactivation,rhodopsin,only minor changes in the difference spectra
"11,13-di-cis-7-ring retinal [isomer 2]",isomerization when bound to opsin,opsin,converts readily to isomer 3 even in the dark
same,FTIR difference spectra of regenerated rhodopsin upon photoactivation,rhodopsin,inactive
11-cis-6-ring-retinal,sensitivity of activity to hydroxylamine,Gt,sensitive to hydroxylamine
same,intensity of activating light flash needed for Gt activation rates comparable to wild-type rhodopsin,Gt; membranes with regenerated rhodopsin,1350 fold
same,pH dependence of Gt activation,Gt; pH 6.4 vs 7.4,enhanced at acidic pH
same,isomeric products in visual pigment after injection of isomer mixture,Rpe65−/− mice [1],three isomers
same,activity of rhodopsin regenerated in vivo,Rpe65−/− mice [2]; Rpe65−/− mice,active at higher bleaches
same,ERG activity (a- and b-wave) compared with Me2SO,"Rpe65−/− mice [2]; mouse, in vivo",clearly elevated
Meta II: catalytically active rhodopsin intermediate containing all-trans-retinal bound to Lys296 of opsin [reference compound],pKa of the light-induced active species,rhodopsin,6.7
11-cis-7-ring-rhodopsin: rhodopsin regenerated with 11-cis-7-ring-retinal,activity in phosphorylation assay with purified rhodopsin kinase,rhodopsin kinase,inactive
"9,11,13-tri-cis-7-ring retinal [isomer 1]",abundance in isomer mixture after bleaching,opsin; bleaching 7-ring-retinoids in solution,least abundant isomer
same,FTIR difference spectra of regenerated rhodopsin upon photoactivation,rhodopsin,only minor changes in the difference spectra
